In article PMC4449006, “Targeting KRAS Oncogene in Colon Cancer Cells with 7-Carboxylate Indolo[3,2-b]quinoline Tri-Alkylamine Derivatives” (PLoS ONE, 2015):

Tested on: SW620 cells
Assay: MTS short-term cytotoxicity assay (72 h), SW620
Assay type: cell-based
Details: 72 h, MTS, standard errors ≤ 0.1
Method: The short-term effect of compounds at 72 h on cell growth was studied using colorectal carcinoma cell lines with different KRAS and TP53 genotypes: human colorectal carcinoma HCT116 (mut Kras, wild-type (wt) p53), and human metastatic colorectal adenocarcinoma SW620 (mut Kras, mut p53). In parallel, we also used the immortalized human embryonic kidney cell line HEK293T (wt Kras, wt p53) and normal human colon fibroblast cells CCD18co (wt Kras, wt p53).
SW620 human colorectal adenocarcinoma cells (European Collection of Cell Cultures, ECACC, Porton Down, Wiltshire, UK), HEK293T human embryonic kidney cells (ATCC, LGC Standards, UK) HCT116 human colon carcinoma cells (ECACC), HCT116 p53(+/+) and p53(−/−) isogenic human colon cancer cells (GRCF Cell Center and Biorepository, the Johns Hopkins University, School of Medicine, Baltimore, MD, USA), were grown in Dulbecco’s modified Eagle’s medium (DMEM) supplemented with 10% fetal bovine serum, and 1% antibiotic/antimycotic (Invitrogen, Grand Island, NY, USA), CCD18co human colon fibroblasts (ATCC, CRL-1459) were grown in Minimum Essential Medium (MEM) supplemented with 10% fetal bovine serum, 1% antibiotic/antimycotic, 2 mM GlutaMAX, 0,1 mM Non-essential amino acids (NEAA) (Invitrogen) and […] Recombinant Human TNF-α (Peprotech, USA) and maintained at 37°C in a humidified atmosphere of 5% CO2.
Cell viability was evaluated by the tetrazolium dye (MTS) Short-Term Cytotoxicity Assay. […] Following 72 h of compound exposure, cell viability was evaluated using the CellTiter 96 AQueous Non-Radioactive Cell Proliferation Assay (Promega, Madison, WI, USA), using 3-(4,5-dimethylthiazol-2-yl)-5-(3-carboxymethoxyphenyl)-2-(4-sulfophenyl)-2H-tetrazolium, inner salt (MTS) as previously described [35]. Cell viability data were expressed as mean ±SD from at least three independent experiments. IC50 and IC65 values were determined using GaphPad Prism v.5.00 (GraphPad Software). In selected experiments, cell viability was also assessed by trypan blue exclusion assay, and general cell death by LDH activity from cell culture supernatants.

Q: Which results are given for `CCN(CC)CCOC(=O)c1ccc2c(c1)c1nc3ccccc3c(OCCN(CC)CC)c1n2CCN(CC)CC` [1a]?
A: SW620 IC65: 4.12 µM; IC50 (Homo sapiens, SW-620, read-out: SW620 IC50): 2690 nM
